Assay results from paper PMC6003237 (Bioorganic & medicinal chemistry, 2017).
Where “and” joins values, the source holds several entries; their conditions need not be identical. Equal values may be shown once. Read-outs that look alike come from different tables or passages of the source. *1 amine or outer side, *2 acyl side, *3 side chain or, on linkers, in order; H or OH if unused. Where a SMILES comes first, the peptide text is derived from it. [ ]: non-standard residue; d: D form. The star is where a group is joined. Emetine(N2') = CC[C@H]1CN2CCc3cc(OC)c(OC)cc3[C@@H]2C[C@@H]1C[C@@H]1c2cc(OC)c(OC)cc2CCN1*; PABC = O=C(OCc1ccc(N[*:1])cc1)[*:2]

How the values were obtained:
mice [1] = conditions: for MTD (nmol injected): mice of average body weight 25 g; for dose producing acute toxicity (convulsions and death) / dose producing acute toxicity (convulsions and death), nmol: single IV injection
[2] = system: NCI 60 cancer cell screen; conditions: ref not given; cited from earlier work
PC-3 xenografts = conditions: dose of 8 mg/kg, earlier studies, ref not given; cited from earlier work
[3] = system: different cancer cell lines; conditions: cited from earlier work
DPPIV = conditions: activation by DPPIV; ref [9]; cited from earlier work
[4] = biological target: Purified native human prostate specific antigen (PSA) (Homo sapiens, UniProt P07288); assay: PSA-mediated hydrolysis of prodrug ex-vivo; type: biochemical
[5] = PBS
[6] = Hydrolysis in LNCaP conditioned media; conditions: serum containing LNCaP conditioned media, 37 °C, 24–72 h
PC3 = assay: MTT cytotoxicity in non-PSA-producing PC3 cells; type: cell-based, human
LNCaP = assay: MTT cytotoxicity in PSA producing LNCaP cells; type: cell-based, human
[7] = Stability / hydrolysis in 10% FBS
[8] = human, 200 µM
CWR22Rv1 = assay: MTT cytotoxicity in low PSA-producing CWR22Rv1 cells; type: cell-based, human
[9] = Stability in human plasma; type: in vitro ADME; conditions: 48 h
mice [10] = conditions: earlier studies of the authors, ref not given; cited from earlier work

Sequence of Purified native human prostate specific antigen (PSA) (P07288 25-261): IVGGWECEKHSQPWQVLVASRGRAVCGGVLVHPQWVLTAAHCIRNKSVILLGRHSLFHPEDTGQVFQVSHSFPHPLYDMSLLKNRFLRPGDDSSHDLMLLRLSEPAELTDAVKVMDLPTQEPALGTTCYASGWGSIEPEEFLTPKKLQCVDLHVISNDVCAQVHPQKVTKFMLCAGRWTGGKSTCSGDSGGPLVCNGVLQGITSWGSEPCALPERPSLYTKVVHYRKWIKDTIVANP

## CC[C@H]1CN2CCc3cc(OC)c(OC)cc3[C@@H]2C[C@@H]1C[C@H]1NCCc2cc(OC)c(OC)cc21 [Emetine, emetine, reference compound]
Mice [1]; IV injection, mice
  Effects/observations at higher doses: Convulsion and death within 1 min of injection at 16 mg/kg
Mice [1]; IV injection
  MTD (nmol injected): 416 nmol
Mice [1]; mice
  dose producing acute toxicity (convulsions and death): 16 mg/kg
[2]
  GI50: 27 nM
PC-3 xenografts
  therapeutic efficacy: no therapeutic efficacy

## CC[C@H]1CN2CCc3cc(OC)c(OC)cc3[C@@H]2C[C@@H]1C[C@@H]1c2cc(OC)c(OC)cc2CCN1C(=O)OCc1ccc(NC(=O)[C@@H]2CCCN2C(=O)[C@H](C)N)cc1 [compound 10, 4-((S)-1-(L-Alanyl)pyrrolidine-2-carboxamido)benzyl (R)-1-(((2R,3R,11bS)-3-ethyl-9,10-dimethoxy-1,3,4,6,7,11b-hexahydro-2H-pyrido[2,1-a]isoquinolin-2-yl)methyl)-6,7-dimethoxy-3,4-dihydroisoquinoline-2(1H)-carboxylate]
[3]; cancer cell lines, ref [6]–[9]
  in vitro cytotoxicity compared to emetine: equipotency with emetine
Mice [1]; IV injection, mice
  Effects/observations at higher doses: Convulsion and death at higher doses
Mice [1]; IV injection
  MTD (nmol injected): 1003 nmol and 1002 nmol
DPPIV
  time for efficient quantitative release of emetine: ≤ 24 h

## CC[C@H]1CN2CCc3cc(OC)c(OC)cc3[C@@H]2C[C@@H]1C[C@@H]1c2cc(OC)c(OC)cc2CCN1C(=O)OCc1ccc(NC(=O)[C@H](CC(C)C)NC(=O)[C@@H](N)CO)cc1 [compound 14, 4-((S)-2-((S)-2-Amino-3-hydroxypropanamido)-4-methyl-pentanamido) benzyl (R)-1-(((2R,3R,11bS)-3-ethyl-9,10-dimethoxy-1,3,4,6,7,11b-hexahydro-2H-pyrido[2,1-a]isoquinolin-2-yl)methyl)-6,7-dimethoxy-3,4-dihydroisoquinoline-2(1H)-carboxylate]
[4]; Purified PSA, 37 °C, 72 h
  % Emetine after 72 h incubation: 0.0%
[4]; purified PSA, 37 °C, 24–72 h
  hydrolysis / conversion to emetine on incubation with purified PSA (LCMS): not observed
Mice [1]; IV injection, mice
  Effects/observations at higher doses: Toxic effect was observed at higher doses
Mice [1]; IV injection
  MTD (nmol injected): 1541 nmol
[5]; 37 °C, 24–72 h
  hydrolysis to emetine or any product (LCMS): did not result in its hydrolysis to emetine or any product of hydrolysis
[5]; 37 °C, 72 h
  % Emetine after 72 h incubation: 0.0%
  % Ser-Leu-PABC-Emetine, 14 after 72 h incubation: 100%
[6]
  hydrolysis to emetine or any product (LCMS): did not result in its hydrolysis to emetine or any product of hydrolysis
PC3
  cytotoxicity compared to emetine: comparable to emetine
PC3; Homo sapiens, PC-3, 72 h
  IC50: < 100 nM
LNCaP
  cytotoxicity compared to emetine: comparable to emetine
LNCaP; Homo sapiens, LNCaP, 72 h
  IC50: < 100 nM
[7]; 10% FBS containing media, 37 °C, 24–72 h
  hydrolysis to emetine or any product (LCMS): did not result in its hydrolysis to emetine or any product of hydrolysis
[8]
  % Ser-Leu-PABC-Emetine, 14 after 72 h incubation: 100%

## CC[C@@H]1C[C@@H](C[C@@H]2c3cc(OC)c(OC)cc3CCN2C(=O)OCc2ccc(NC(=O)[C@H](CC(C)C)NC(=O)[C@H](CO)NC(C)=O)cc2)[C@H]2c3cc(OC)c(OC)cc3CCN2C1 [compound 15, 4-((S)-2-((S)-2-Acetamido-3-hydroxypropanamido)-4-methyl-pentanamido) benzyl (R)-1-(((2R,3R,11bS)-3-ethyl-9,10-dimethoxy-1,3,4,6,7,11b-hexahydro-2H-pyrido[2,1-a]isoquinolin-2-yl)methyl)-6,7-dimethoxy-3,4-dihydroisoquinoline-2(1H)-carboxylate]
PC3; PC3 (Fig. 3B)
  concentration at which significant cytotoxicity was demonstrated: 10,000 nM
LNCaP; LNCaP (Fig. 3A)
  concentration at which significant cytotoxicity was demonstrated: 10,000 nM

## CC[C@H]1CN2CCc3cc(OC)c(OC)cc3[C@@H]2C[C@@H]1C[C@@H]1c2cc(OC)c(OC)cc2CCN1C(=O)OCc1ccc(NC(=O)[C@H](CC(C)C)NC(=O)[C@H](CO)NC(=O)[C@H](CCC(N)=O)NC(=O)[C@H](CC(C)C)NC(=O)[C@H](CCCCN)NC(=O)[C@H](CO)NC(=O)[C@H](CO)NC(=O)[C@H](Cc2c[nH]cn2)NC(C)=O)cc1 [compound 16] (Ac-HSSKLQSL[PABC]-{Emetine(N2')})
CWR22Rv1
  IC50 fold higher than the IC50 of emetine: about 2 fold
[4]; purified PSA, 2 h
  % of 14 observed after incubation with PSA (LCMS): 20%
[4]; purified PSA, 6 h
  % of 14 observed after incubation with PSA (LCMS): 50%
[4]; purified PSA, 20 h
  % of 14 observed after incubation with PSA (LCMS): 98%
LNCaP; LNCaP
  IC50 fold higher than the IC50 of emetine: about 2 fold

## CC[C@H]1CN2CCc3cc(OC)c(OC)cc3[C@@H]2C[C@@H]1C[C@@H]1c2cc(OC)c(OC)cc2CCN1C(=O)OCc1ccc(NC(=O)[C@H](CC(C)C)NC(=O)[C@H](CO)NC(=O)[C@H](CCC(N)=O)NC(=O)[C@H](CC(C)C)NC(=O)[C@H](CCCCN)NC(=O)[C@H](CO)NC(=O)[C@H](CO)NC(=O)[C@H](Cc2cnc[nH]2)NC(C)=O)cc1 [compound 16] (Ac-HSSKLQSL[PABC]-{Emetine(N2')})
Mice [1]; 25 mg/kg (402 nmol) IV
  observation at the MTD: acute distress followed by recovery within an hour of injection
Mice [1]; IV injection, mice
  Effects/observations at higher doses: Convulsion started about 1 min post injection at higher doses
Mice [1]; IV injection
  MTD (nmol injected): 402 nmol
Mice [1]; mice
  dose producing acute toxicity (convulsions and death): 50 mg/kg
  dose producing acute toxicity (convulsions and death), nmol: 804 nmol
[5]; five-day incubation at 37 °C
  stability (cleavage, hydrolysis/decomposition): no sign of cleavage or any form of hydrolysis/decomposition was detectable
PC3; PC3 vs CWR22Rv1 and LNCaP, from IC50
  times less cytotoxic in non-PSA producing cells than in PSA producing cells: 7–9 times
[9]
  stability in human plasma (detection of 14 or emetine): Neither precursor 14 nor emetine was detected
[7]; 10% FBS, five-day incubation at 37 °C
  stability (cleavage, hydrolysis/decomposition): no sign of cleavage or any form of hydrolysis/decomposition was detectable

## CC[C@H]1CN2CCc3cc(OC)c(OC)cc3[C@@H]2C[C@@H]1C[C@@H]1c2cc(OC)c(OC)cc2CCN1C(=S)[S-].[Na+] [compound 18]
[3]; cancer cell lines, ref [6]–[9]
  in vitro cytotoxicity compared to emetine: much less toxic in vitro compared to emetine
Mice [1]; IV injection, mice
  Effects/observations at higher doses: No remarkable behavior even at higher doses. Mice remained alive
Mice [1]; IV injection
  MTD (nmol injected): > 4320 nmol

## CC[C@H]1CN2CCc3cc(OC)c(OC)cc3[C@@H]2C[C@@H]1C[C@@H]1c2cc(OC)c(OC)cc2CCN1C(=O)/C=C(/C)C(=O)O [compound 19]
[3]
  in vitro cytotoxicity compared to emetine: much less toxic in vitro compared to emetine
Mice [1]; IV injection, mice
  Effects/observations at higher doses: No remarkable behavior even at higher doses. Mice remained alive
Mice [1]; IV injection
  MTD (nmol injected): > 4218 nmol

## CC[C@H]1CN2CCc3cc(OC)c(OC)cc3[C@@H]2C[C@@H]1C[C@@H]1c2cc(OC)c(OC)cc2CCN1C(=O)/C=C(/CC(=O)O)C(=O)O [compound 20]
[3]
  in vitro cytotoxicity compared to emetine: much less toxic in vitro compared to emetine
Mice [1]; IV injection, mice
  Effects/observations at higher doses: No remarkable behavior even at higher doses. Mice remained alive
Mice [1]; IV injection
  MTD (nmol injected): > 3926 nmol

## CC[C@H]1CN2CCc3cc(OC)c(OC)cc3[C@@H]2C[C@@H]1C[C@@H]1c2cc(OC)c(OC)cc2CCN1C(=O)/C(C)=C(/C)C(=O)O [compound 21]
Mice [1]; IV injection, mice
  Effects/observations at higher doses: 32 mg/kg (1318 nmol) is toxic like emetine
Mice [10]
  lethal dose: 32 mg/kg

## CC[C@H]1CN2CCc3cc(OC)c(OC)cc3[C@@H]2C[C@@H]1C[C@@H]1c2cc(OC)c(OC)cc2CCN1C(=O)CCC(=O)O [compound 22]
[3]
  in vitro cytotoxicity compared to emetine: much less toxic in vitro compared to emetine
Mice [1]; IV injection, mice
  Effects/observations at higher doses: No remarkable behavior. Mice remained alive
Mice [1]; IV injection
  MTD (nmol injected): > 4305 nmol

## CC[C@H]1CN2CCc3cc(OC)c(OC)cc3[C@@H]2C[C@@H]1C[C@@H]1c2cc(OC)c(OC)cc2CCN1C(=O)[C@@H]1CCCN1C(=O)[C@H](C)N [compound 23]
[3]; in vitro cytotoxicity assays, ref [9]
  in vitro cytotoxicity compared to 10: significantly less active
Mice [1]; IV injection, mice
  Effects/observations at higher doses: Convulsion and death within 1 min of injection at 16 mg/kg (617 nmol)
Mice [1]; mice
  dose producing acute toxicity (convulsions and death): 16 mg/kg
  dose producing acute toxicity (convulsions and death), nmol: 617 nmol

## CC[C@H]1CN2CCc3cc(OC)c(OC)cc3[C@@H]2C[C@@H]1C[C@@H]1c2cc(OC)c(OC)cc2CCN1C(=O)OCc1ccc(NC(=O)[C@@H]2CCCN2C(=O)[C@H](C)NC(=O)[C@@H]2CCCN2C(=O)[C@H](C)NC(C)=O)cc1 [compound 24] (Ac-APAP[PABC]-{Emetine(N2')})
Mice [1]; IV injection, mice
  Effects/observations at higher doses: Intermittent convulsion started 1 min post injection of 33 mg/kg dose (818 nmol). Death occurred after about 8 min
Mice [1]; mice
  dose producing acute toxicity (convulsions and death): 33 mg/kg
  dose producing acute toxicity (convulsions and death), nmol: 818 nmol

## CC[C@H]1CN2CCc3cc(OC)c(OC)cc3[C@@H]2C[C@@H]1C[C@@H]1c2cc(OC)c(OC)cc2CCN1C(=O)OCc1ccc([N+](=O)[O-])cc1 [compound 25]
[3]; different cancer cell lines, ref [6]–[9]
  fold less cytotoxic than emetine in vitro: about 200 fold
Mice [1]; IV injection, mice
  Effects/observations at higher doses: No remarkable behavior, no sign of toxicity. Mice remained alive
  dose without any observable sign of toxicity: 64 mg/kg
  dose without any observable sign of toxicity, nmol: 2425 nmol
Mice [1]; IV injection
  MTD (nmol injected): > 2425 nmol

## CC[C@H]1CN2CCc3cc(OC)c(OC)cc3[C@@H]2C[C@@H]1C[C@@H]1c2cc(OC)c(OC)cc2CCN1C(=S)Nc1ccccc1 [compound 26]
[3]; cancer cell lines, ref [6]–[9]
  in vitro cytotoxicity compared to emetine: less cytotoxic in vitro than emetine
Mice [1]; male, Balb/c, mouse, in vivo, iv
  dose without any observable sign of toxicity: up to 100 mg/kg
